Key:
Cyp1a2 [1] = assay: Cyp1a2 mRNA in rat small intestine (jejunum); format: in vivo; conditions: data not shown
Experimental: All animal experiments were conducted in accordance with the Guiding Principles in the Use of Animals in Toxicology (http://www.toxicology.org/ai/air/air6.asp) and were approved by Abbott's Institutional Animal Care and Use Committee (IACUC). Male Sprague-Dawley rats [Crl:CD®(SD)IGS BR], weighing ~250 g at study initiation were obtained from Charles River Laboratories, Inc. (Wilmington, MA). Rats were housed singly in ventilated, stainless steel, wire-bottom hanging cages and fed non-certified Rodent Chow (Harlan Labs, Madison, WI), and water ad libitum and acclimated for at least 5 days after arrival. […] Serum clinical chemistry parameters were quantified using an Aeroset Clinical Chemistry Analyzer (Abbott Laboratories, Abbott Park, IL) and included alanine amino transferase (ALT), aspartate amino transferase (AST), gamma glutamyltransferase (GGT), and alkaline phosphatase (ALP) activities.
Frozen liver or jejunum were immediately added to 4 ml of TRIzol reagent (Invitrogen Life Technologies) and homogenized using a Polytron 300D homogenizer (Brinkman Instruments, Westbury, NY). […] Nucleic acid concentration was determined by OD 260 nm (Smart-Spec, Bio-Rad Laboratories, Hercules, CA), and RNA integrity was evaluated using an Agilent 2100 bioanalyzer (Agilent Technologies, Foster City, CA). […]

rat Cyp 2D1 = molecular target: T1, rat Cyp 2D1 (Rattus norvegicus, UniProt P10633); assay: Recombinant rat Cyp phenotype profiling, 2D1; format: in vitro ADME; conditions: 60 min
T1 construct: purchased BD Gentest; host or cells: baculovirus infected insect cells
T1 sequence (P10633 whole entry): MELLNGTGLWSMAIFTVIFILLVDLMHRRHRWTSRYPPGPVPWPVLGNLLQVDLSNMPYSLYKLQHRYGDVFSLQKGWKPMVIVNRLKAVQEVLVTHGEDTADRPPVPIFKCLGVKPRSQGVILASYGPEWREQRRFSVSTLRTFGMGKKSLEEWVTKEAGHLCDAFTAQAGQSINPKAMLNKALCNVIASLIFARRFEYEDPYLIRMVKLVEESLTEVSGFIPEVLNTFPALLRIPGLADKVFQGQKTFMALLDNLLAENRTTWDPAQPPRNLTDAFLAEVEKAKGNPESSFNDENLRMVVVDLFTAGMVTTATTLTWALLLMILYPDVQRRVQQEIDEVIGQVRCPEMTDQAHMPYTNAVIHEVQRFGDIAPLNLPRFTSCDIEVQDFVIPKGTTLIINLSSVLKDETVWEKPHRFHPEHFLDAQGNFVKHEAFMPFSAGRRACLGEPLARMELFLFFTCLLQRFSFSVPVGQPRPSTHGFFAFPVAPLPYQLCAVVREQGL
Experimental: Identification of the drug metabolizing enzymes (DMEs) of A-998679 was studied in cDNA expressed recombinant enzymes prepared from baculovirus infected insect cells over-expressing rat Cyp isoforms (BD Gentest, Woburn, MA) as listed in Table 2. Incubations were conducted in duplicate using Supersomes. The incubation mixture contained 100 pmol/ml of enzymes, except for Cyp1a1 (200 pmol/ml), 0.1 or 0.21 μM of [^3H]A-998679 in 100 mM phosphate buffer (pH 7.4). Reactions were initiated with the addition of NADPH at a final concentration of 1 mM and incubated at 37°C for 60 min. At the end of the incubation period, the incubations were terminated by the addition of acetonitrile/ethanol (50/50, v/v) solution. Insect control samples lacking expressed enzyme were used as negative control. The degree of metabolism of A-998679 was assessed by percent of parent remaining using the radio-HPLC method described below.
Radiolabeled components from the above assays were profiled following separation by HPLC with on line radioflow detector. The system consisted of an Agilent 1100 Series quaternary pump and autosampler connected to a Packard 500TR flow scintillation detector. The data were processed using the Radiomatic™ Flo-one® software v3.65. The scintillant (Perkin Elmer FLO-SCINT™ III) flow was maintained at 3 ml/min. […]

CYP1A1 = CYP1A1 mRNA induction in primary human hepatocytes; format: cell-based; conditions: 24 h, dose-dependent
Experimental: (§1) Rat hepatocytes were isolated in a perfusion procedure as described previously (Elliget and Kolaja, [1983]; Waring et al., [2001]). The beagle dog hepatocytes were isolated in the same manner, except for adjustment of flow rate and buffer volume to scale to liver size. Cells were plated at a seeding density of 1.0 × 10^6 cells per well on 6-well, collagen-type I coated plates (BD Biosciences, Bedford, MA) in hepatocyte plating medium (Celsis, Baltimore, MD). Cells were allowed to attach for 24 h in a 37°C humidified incubator with a 5% CO2 atmosphere and were dosed for 24 h (rat) or 48 h (dog) with vehicle control [0.1% DMSO (v/v)] or 10 μM A-998679 in fresh treatment media (Celsis hepatocyte incubation media) every 24 h. After the last incubation, cells were lysed in 1 ml of Qiazol (Qiagen) and stored at −80°C until RNA isolation. Cryopreserved human hepatocytes (donor designation Hu4198; Invitrogen Life Technologies, Carlsbad, CA) were thawed and plated according to the manufacturer's protocol and allowed to incubate for 24 h. […]
(§2) RNA samples were diluted with RNase-free molecular biology grade water to a concentration of 20 ng/μl total RNA. […] Results were analyzed by calculating the fold change of CYP1A1 and/or CYP1A2 mRNA levels normalized to 28S rRNA (ΔΔ Ct) in compound treated cells or tissues compared to vehicle levels. […]

CYP1A2 [2] = assay: CYP1A2 mRNA induction in primary dog hepatocytes; format: cell-based; conditions: 10 μM, 48 h, data not shown
Experimental: as §1, §2

N#Cc1cccc(-c2noc(-c3cccnc3)n2)c1 [A-998679, 3-(5-pyridin-3-yl-1,2,4-oxadiazol-3-yl) benzonitrile]
Cyp1a2 mRNA levels in rat jejunum (Cyp1a2 [1]): unchanged
% parent remaining (rat Cyp 2D1; recombinant rat Cyp 2D1, 0.10 μM): 91.9%
% parent remaining (rat Cyp 2D1; recombinant rat Cyp 2D1, 0.21 μM): 91.1%
lowest concentration inducing CYP1A1 mRNA (CYP1A1): 3 µM
CYP1A2 mRNA induction (CYP1A2 [2]): also observed

Source: article PMC3481155, “AhR activation underlies the CYP1A autoinduction by A-998679 in rats” (Frontiers in Genetics, 2012)
